Laboratory results: US8519128B2, “Pyripyropene derivatives having an ACAT2-inhibiting activity” (The Kitasato Institute, priority 2007, dated 2013)
Where two headings read alike, the source gives them in different places.

Biological target: T1, ACAT 2 (Mus musculus, UniProt O88908)
T1 construct: The source of ACAT 2 enzyme used was a membrane fraction derived from mouse liver microsome; from tissue; host or cells: mouse liver (microsome fraction)
T1 sequence (O88908 1-525): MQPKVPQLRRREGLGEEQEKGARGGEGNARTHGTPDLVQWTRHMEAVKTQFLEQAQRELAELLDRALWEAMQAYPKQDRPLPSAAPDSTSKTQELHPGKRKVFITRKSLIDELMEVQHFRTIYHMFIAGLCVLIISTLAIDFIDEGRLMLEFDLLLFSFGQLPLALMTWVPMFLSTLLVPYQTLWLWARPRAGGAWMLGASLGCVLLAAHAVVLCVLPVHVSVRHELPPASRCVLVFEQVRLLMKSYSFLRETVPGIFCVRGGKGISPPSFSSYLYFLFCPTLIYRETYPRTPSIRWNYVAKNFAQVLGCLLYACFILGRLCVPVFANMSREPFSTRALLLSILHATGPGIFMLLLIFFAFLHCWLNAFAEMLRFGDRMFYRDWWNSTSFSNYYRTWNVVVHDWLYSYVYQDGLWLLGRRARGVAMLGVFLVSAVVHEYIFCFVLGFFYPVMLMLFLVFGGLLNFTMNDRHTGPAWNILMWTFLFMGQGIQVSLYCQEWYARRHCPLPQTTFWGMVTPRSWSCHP
Experiment: ACAT-inhibiting activity, mouse liver microsome membrane fraction, [14C]oleoyl-CoA
Assay type: biochemical
Details: for Specific activity: (inhibitory activity of test compound)/(inhibitory activity of pyripyropene A): relative to pyripyropene A
Description: The source of ACAT 2 enzyme used was a membrane fraction derived from mouse liver microsome. Mouse liver was homogenized in buffer solution A (50 mM Tris-HCl (pH 7.8), 1 mM ethylenediamine tetraacetate, and 1 mM phenylmethanesulfonyl fluoride) using a homogenizer of the Potter type (Tokyo-RIKO). The homogenate was centrifuged at 12000×g, and the supernatant was ultracentrifuged at 100000×g. The sediment was taken as a microsome fraction, and this fraction was adjusted to have a protein concentration of 5 mg/ml using buffer solution A.
The chloroform layer was evaporated to dryness and was used to spot a thin layer chromatography plate (silica gel plate, Merck, 0.5 mm thickness). Elution for separation was carried out using a solvent of hexane/diethyl ether/acetic acid (70:30:1, v/v).

[1] = mouse liver microsome, 5 minutes at 37° C.

Compound	IC50 [1] [nM]	Specific activity: (inhibitory activity of test compound)/(inhibitory activity of pyripyropene A)	IC50 (read-out: Inhibitory activity: Concentration required for 50% inhibition of ACAT 2, mouse liver microsome, 5 minutes at 37° C.) [nM]	IC50 [nM]
CC(=O)OCC1(C)C2C[C@H](OC(=O)c3cccc(C#N)c3)[C@@]3(C)Oc4cc(-c5cccnc5)oc(=O)c4[C@H](O)C3[C@@]2(C)CC[C@@H]1OC(C)=O (stereo partly drawn) [PRD 016, 7-m-cyanobenzoyl-7-deacetylpyripyropene A]	10 to 100	+++ (50 > specific activity > 10)		
CC(=O)OCC1(C)C2C[C@H](OC(=O)CCc3ccccc3)[C@@]3(C)Oc4cc(-c5cccnc5)oc(=O)c4[C@H](O)C3[C@@]2(C)CC[C@@H]1OC(C)=O (stereo partly drawn) [PRD 100, 7-O-3-phenylpropionyl-7-deacetylpyripyropene A]	< 10	+++ (50 > specific activity > 10)		
CC12COC(c3ccccc3)O[C@H]1CC[C@@]1(C)C2C[C@H](OC(=O)c2ccccc2C#N)[C@@]2(C)Oc3cc(-c4cccnc4)oc(=O)c3[C@H](O)C12 (stereo partly drawn) [PRD 039, 1,11-O-benzylidene-7-O-o-cyanobenzoyl-1,7,11-trideacetylpyripyropene A]		+++ (50 > specific activity > 10)		
CC(=O)OCC1(C)C2C[C@H](OC(=O)c3ccc(Cl)cc3)[C@@]3(C)Oc4cc(-c5cccnc5)oc(=O)c4[C@H](O)C3[C@@]2(C)CC[C@@H]1OC(C)=O (stereo partly drawn) [PRD 012, 7-p-chlorobenzoyl-7-deacetylpyripyropene A]	< 10	+++ (50 > specific activity > 10)		
CC(=O)OCC1(C)C2C[C@H](OC(=O)c3ccc(N)cc3)[C@@]3(C)Oc4cc(-c5cccnc5)oc(=O)c4[C@H](O)C3[C@@]2(C)CC[C@@H]1OC(C)=O (stereo partly drawn) [PRD 032, 7-p-aminobenzoyl-7-deacetylpyripyropene A]	100 to 1000	+ (5 > specific activity > 1)		
7-O-o,m,p-trifluorobenzoyl-7-deacetylpyripyropene A [PRD 110]		+++ (50 > specific activity > 10)	< 10	
CC(=O)OCC1(C)C2C[C@H](OC(=O)C3CCCC3)[C@@]3(C)Oc4cc(-c5cccnc5)oc(=O)c4[C@H](O)C3[C@@]2(C)CC[C@@H]1OC(C)=O (stereo partly drawn) [PRD 075, 7-O-cyclopentanecarboxyl-7-deacetylpyripyropene A]		++ (10 > specific activity > 5)		10 to 100
CC(=O)OCC1(C)C2C[C@H](OC(=O)c3ccccc3C)[C@@]3(C)Oc4cc(-c5cccnc5)oc(=O)c4[C@H](O)C3[C@@]2(C)CC[C@@H]1OC(C)=O (stereo partly drawn) [PRD 007, 7-o-methylbenzoyl-7-deacetylpyripyropene A]		++++ (100 > specific activity > 50)		
CC(=O)OCC1(C)C2C[C@H](OC(=O)C34CC5CC(CC(C5)C3)C4)[C@@]3(C)Oc4cc(-c5cccnc5)oc(=O)c4[C@H](O)C3[C@@]2(C)CC[C@@H]1OC(C)=O (stereo partly drawn) [PRD 022, 7-1-adamantanecarboxyl-7-deacetylpyripyropene A]	< 10	+++ (50 > specific activity > 10)		
CC12COC(c3ccccc3)O[C@H]1CC[C@@]1(C)C2C[C@H](OC(=O)c2ccc(Br)cc2)[C@@]2(C)Oc3cc(-c4cccnc4)oc(=O)c3[C@H](O)C12 (stereo partly drawn) [PRD 053, 1,11-O-benzylidene-7-O-p-bromobenzoyl-1,7,11-trideacetylpyripyropene A]	10 to 100	+ (5 > specific activity > 1)		
CC(=O)OCC1(C)C2C[C@H](OC(=O)CCN3CCN(C)CC3)[C@@]3(C)Oc4cc(-c5cccnc5)oc(=O)c4[C@H](O)C3[C@@]2(C)CC[C@@H]1OC(C)=O (stereo partly drawn) [PRD 104, 7-O-3-(4-methylpiperazin-1-yl)propionyl-7-deacetylpyripyropene A]	100 to 1000	+ (5 > specific activity > 1)		
COc1ccc(C(=O)O[C@H]2CC3C4(C)COC(c5ccccc5)O[C@H]4CC[C@]3(C)C3[C@@H](O)c4c(cc(-c5cccnc5)oc4=O)O[C@@]32C)cc1 (stereo partly drawn) [PRD 044, 1,11-O-benzylidene-7-O-p-methoxybenzoyl-1,7,11-trideacetylpyripyropene A]	10 to 100	+++ (50 > specific activity > 10)		
CC(=O)OCC1(C)C2C[C@H](OC(=O)CO)[C@@]3(C)Oc4cc(-c5cccnc5)oc(=O)c4[C@H](O)C3[C@@]2(C)CC[C@@H]1OC(C)=O (stereo partly drawn) [PRD 107, 7-O-hydroxyacetyl-7-deacetylpyripyropene A]	100 to 1000	+ (5 > specific activity > 1)		
CC12COC(c3ccccc3)O[C@H]1CC[C@@]1(C)C2C[C@H](OC(=O)c2cccc(Br)c2)[C@@]2(C)Oc3cc(-c4cccnc4)oc(=O)c3[C@H](O)C12 (stereo partly drawn) [PRD 052, 1,11-O-benzylidene-7-O-m-bromobenzoyl-1,7,11-trideacetylpyripyropene A]	10 to 100	++ (10 > specific activity > 5)		
CC(=O)OCC1(C)C2C[C@H](OC(=O)c3ccc(I)cc3)[C@@]3(C)Oc4cc(-c5cccnc5)oc(=O)c4[C@H](O)C3[C@@]2(C)CC[C@@H]1OC(C)=O (stereo partly drawn) [PRD 006, 7-p-iodobenzoyl-7-deacetylpyripyropene A]	10 to 100	++ (10 > specific activity > 5)		
CC(=O)OCC1(C)C2C[C@H](OC(=O)Oc3ccc(Cl)cc3)[C@@]3(C)Oc4cc(-c5cccnc5)oc(=O)c4[C@H](O)C3[C@@]2(C)CC[C@@H]1OC(C)=O (stereo partly drawn) [PRD 058, 7-O-p-chlorophenoxycarbonyl-7-deacetylpyripyropene A]	10 to 100	+++ (50 > specific activity > 10)		
COc1ccc(C(=O)O[C@H]2CC3C(C)(COC(C)=O)[C@@H](OC(C)=O)CC[C@]3(C)C3[C@@H](O)c4c(cc(-c5cccnc5)oc4=O)O[C@@]32C)cc1 (stereo partly drawn) [PRD 003, 7-p-methoxybenzoyl-7-deacetylpyripyropene A]	< 10	+++ (50 > specific activity > 10)		
CC(=O)OCC1(C)C2C[C@H](OC(=O)c3cccc(Cl)c3)[C@@]3(C)Oc4cc(-c5cccnc5)oc(=O)c4[C@H](O)C3[C@@]2(C)CC[C@@H]1OC(C)=O (stereo partly drawn) [PRD 011, 7-m-chlorobenzoyl-7-deacetylpyripyropene A]	10 to 100	+++ (50 > specific activity > 10)		
COCOCC(=O)O[C@H]1CC2C(C)(COC(C)=O)[C@@H](OC(C)=O)CC[C@]2(C)C2[C@@H](O)c3c(cc(-c4cccnc4)oc3=O)O[C@@]21C (stereo partly drawn) [PRD 106, 7-O-methoxymethoxyacetyl-7-deacetylpyripyropene A]		+ (5 > specific activity > 1)		100 to 1000
CC(=O)OCC1(C)C2C[C@H](OC(=O)Oc3ccccc3)[C@@]3(C)Oc4cc(-c5cccnc5)oc(=O)c4[C@H](O)C3[C@@]2(C)CC[C@@H]1OC(C)=O (stereo partly drawn) [PRD 057, 7-deacetyl-7-O-phenoxycarbonylpyripyropene A]	10 to 100	+ (5 > specific activity > 1)		
C=Cc1ccc(C(=O)O[C@H]2CC3C(C)(COC(C)=O)[C@@H](OC(C)=O)CC[C@]3(C)C3[C@@H](O)c4c(cc(-c5cccnc5)oc4=O)O[C@@]32C)cc1 (stereo partly drawn) [PRD 014, 7-p-vinylbenzoyl-7-deacetylpyripyropene A]		++ (10 > specific activity > 5)		
CC(=O)OCC1(C)C2C[C@H](OC(=O)c3ccc(F)cc3)[C@@]3(C)Oc4cc(-c5cccnc5)oc(=O)c4[C@H](O)C3[C@@]2(C)CC[C@@H]1OC(C)=O (stereo partly drawn) [PRD 020, 7-p-fluorobenzoyl-7-deacetylpyripyropene A]	< 10	+++ (50 > specific activity > 10)		
COc1ccc(CCCC(=O)O[C@H]2CC3C(C)(COC(C)=O)[C@@H](OC(C)=O)CC[C@]3(C)C3[C@@H](O)c4c(cc(-c5cccnc5)oc4=O)O[C@@]32C)cc1 (stereo partly drawn) [PRD 103, 7-O-4-(4-methoxyphenyl)butytyl-7-deacetylpyripyropene A]	< 10	+++ (50 > specific activity > 10)		
CC(=O)OCC1(C)C2C[C@H](OC(=O)c3ccc(N=[N+]=[N-])cc3)[C@@]3(C)Oc4cc(-c5cccnc5)oc(=O)c4[C@H](O)C3[C@@]2(C)CC[C@@H]1OC(C)=O (stereo partly drawn) [PRD 030, 7-O-p-azidebenzoyl-7-deacetylpyripyropene A]	10 to 100	++ (10 > specific activity > 5)		
